Source: patent US20250353891A1 (MEDIMMUNE LIMITED, priority 2022, published 2025)
Starred links: 1 amine or outer side, 2 acyl side, 3 side chain; linkers in the order of their positions; H or OH if unused. Non-standard residues stand in square brackets, D forms with d. Residues, ends and D or L forms follow the SMILES beside them. Groups on a side chain read outwards from the residue. *: point of attachment. X1 = CC(C)(CCNC(=N)N)[C@H](N[*:1])C(=O)[*:2]; C18 diacid = O=C(O)CCCCCCCCCCCCCCCCC(=O)*; γGlu = O=C(O)[C@H](CCC(=O)[*:2])N[*:1]; Stearoyl = CCCCCCCCCCCCCCCCCC(=O)*; Palmitoyl = CCCCCCCCCCCCCCCC(=O)*; αMeF = C[C@](N)(Cc1ccccc1)C(=O)O; Myristoyl = CCCCCCCCCCCCCC(=O)*; PEG2 = NCCOCCOCCC(=O)O; AEEA = NCCOCCOCC(=O)O; Aib = CC(C)(N)C(=O)O

Molecular target: human GLP-1 receptor (hGLP-1R) (Homo sapiens, UniProt P43220)
Sequence (P43220 24-463): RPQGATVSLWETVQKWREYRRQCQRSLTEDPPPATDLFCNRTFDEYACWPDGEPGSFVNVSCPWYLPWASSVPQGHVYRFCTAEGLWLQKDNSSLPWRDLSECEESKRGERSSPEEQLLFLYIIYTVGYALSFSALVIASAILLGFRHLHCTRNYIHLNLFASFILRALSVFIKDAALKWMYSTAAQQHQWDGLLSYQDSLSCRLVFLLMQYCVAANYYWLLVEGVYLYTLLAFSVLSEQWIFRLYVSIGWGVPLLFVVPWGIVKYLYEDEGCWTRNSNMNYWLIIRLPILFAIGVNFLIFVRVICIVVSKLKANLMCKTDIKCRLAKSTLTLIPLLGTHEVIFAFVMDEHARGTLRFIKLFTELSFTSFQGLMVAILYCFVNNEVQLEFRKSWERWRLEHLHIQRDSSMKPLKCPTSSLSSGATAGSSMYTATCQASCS
Experiment: cAMP production (HTRF) in CHO cells expressing hGLP-1R
Assay type: cell-based
Parameters: expressed in transfected cells
Details: for % Relative Potency Ratio: Table 6, % GLP-1R activity relative to GLP-1 / % GlucR activity relative to glucagon; for EC50: Table 6, peptides modified at position 17, cAMP in CHO hGLP-1R cells, geometric mean, read-out: hGLP-1R EC50
Description: Cells were re-suspended in assay buffer at a batch-dependent optimized concentration (typically hGLP-1R cells at 1×10^5 cells/mL, hGCGR cells at 2×10^5 cells/mL).
Cells were added to the assay plate using a multidrop dispenser and incubated at room temperature for 30 minutes before measuring the cAMP level using a cAMP dynamic 2 homogeneous time resolved Fluorescence (HTRF) kit (Cisbio Bioassays #62AM4PEJ) following the two-step protocol as per manufacturer's recommendations. In brief, anti-cAMP cryptate (donor fluorophore) and cAMP-d2 (acceptor fluorophore) were made up separately by diluting each 1 in 20 in conjugate and lysis buffer provided in the kit. Anti-CAMP cryptate was added to all wells of the assay plate, followed by cAMP-d2 added to all wells except non-specific binding (NSB) wells (to which conjugate and lysis buffer was added).
Data was transformed to % Delta F as described in the manufacturer's guidelines and analyzed by 4-parameter logistic fit to determine EC50 values.

SMILES	% Relative Potency Ratio	EC50 [pM]
CCCCCCCCCCCCCCCCCC(=O)N[C@@H](CCC(=O)N[C@@H](CCC(=O)NCCOCCOCCC(=O)NCCOCCOCCC(=O)NCCCC[C@H](NC(=O)[C@H](CO)NC(=O)[C@H](CC(=O)O)NC(=O)[C@H](CC(C)C)NC(=O)[C@](C)(Cc1ccccc1)NC(=O)[C@H](CCCCN)NC(=O)[C@H](CO)NC(=O)[C@@H](NC(=O)[C@H](CC(=O)O)NC(=O)[C@H](CO)NC(=O)[C@@H](NC(=O)[C@](C)(Cc1ccccc1)NC(=O)[C@H](CO)NC(=O)CNC(=O)[C@H](CCC(N)=O)NC(=O)C(C)(C)NC(=O)[C@@H](N)Cc1c[nH]cn1)[C@@H](C)O)C(C)C)C(=O)N[C@H](C(=O)N[C@@H](C)C(=O)N[C@@H](CCC(N)=O)C(=O)N[C@@H](CC(=O)O)C(=O)N[C@@](C)(Cc1ccccc1)C(=O)N[C@H](C(=O)N[C@@H](CCC(=O)O)C(=O)NC(C)(C)C(=O)N[C@@H](CC(C)C)C(=O)N[C@@H](CCC(=O)O)C(=O)N[C@@H](C)C(=O)NCC(=O)NCC(N)=O)C(C)C)C(C)(C)CCNC(=N)N)C(=O)O)C(=O)O [Peptide 74] (H-H[Aib]QGS[αMeF]TSDVSK[αMeF]LDSK([PEG2-PEG2-γGlu-γGlu-Stearoyl])[X1]AQD[αMeF]VE[Aib]LEAGG-NH2; N-terminus assumed)	11.8	–
CCCCCCCCCCCCCCCCCC(=O)N[C@@H](CCC(=O)N[C@@H](CCC(=O)NCCOCCOCCC(=O)NCCOCCOCCC(=O)NCCCC[C@H](NC(=O)[C@H](CO)NC(=O)[C@H](CC(=O)O)NC(=O)[C@H](CC(C)C)NC(=O)[C@](C)(Cc1ccccc1)NC(=O)[C@H](CCCCN)NC(=O)[C@H](CO)NC(=O)[C@@H](NC(=O)[C@H](CC(=O)O)NC(=O)[C@H](CO)NC(=O)[C@@H](NC(=O)[C@](C)(Cc1ccccc1)NC(=O)[C@H](CO)NC(=O)CNC(=O)[C@H](CCC(N)=O)NC(=O)[C@H](CO)NC(=O)[C@@H](N)Cc1c[nH]cn1)[C@@H](C)O)C(C)C)C(=O)N[C@@H](C)C(=O)N[C@@H](C)C(=O)N[C@@H](CCC(N)=O)C(=O)N[C@@H](CC(=O)O)C(=O)N[C@@](C)(Cc1ccccc1)C(=O)N[C@H](C(=O)N[C@@H](CCC(N)=O)C(=O)NC(C)(C)C(=O)N[C@H](C(=O)N[C@@H](C)C(=O)N[C@@H](CC(N)=O)C(=O)N[C@H](C(N)=O)[C@@H](C)O)[C@@H](C)CC)C(C)C)C(=O)O)C(=O)O [Peptide 82] (H-HSQGS[αMeF]TSDVSK[αMeF]LDSK([PEG2-PEG2-γGlu-γGlu-Stearoyl])AAQD[αMeF]VQ[Aib]IANT-NH2; N-terminus assumed)	18.3	–
CCCCCCCCCCCCCCCC(=O)N[C@@H](CCC(=O)N[C@@H](CCC(=O)NCCOCCOCCC(=O)NCCOCCOCCC(=O)NCCCC[C@H](NC(=O)[C@H](CO)NC(=O)[C@H](CC(=O)O)NC(=O)[C@H](CC(C)C)NC(=O)[C@](C)(Cc1ccccc1)NC(=O)[C@H](CCCCN)NC(=O)[C@H](CO)NC(=O)[C@@H](NC(=O)[C@H](CC(=O)O)NC(=O)[C@H](CO)NC(=O)[C@@H](NC(=O)[C@](C)(Cc1ccccc1)NC(=O)[C@H](CO)NC(=O)CNC(=O)[C@H](CCC(N)=O)NC(=O)[C@H](CO)NC(=O)[C@@H](N)Cc1c[nH]cn1)[C@@H](C)O)C(C)C)C(=O)N[C@@H](C)C(=O)N[C@@H](C)C(=O)N[C@@H](CCC(N)=O)C(=O)N[C@@H](CC(=O)O)C(=O)N[C@@](C)(Cc1ccccc1)C(=O)N[C@H](C(=O)N[C@@H](CCC(N)=O)C(=O)N[C@H](C(=O)N[C@H](C(=O)N[C@@H](C)C(=O)N[C@@H](CC(N)=O)C(N)=O)[C@@H](C)CC)[C@@H](C)CC)C(C)C)C(=O)O)C(=O)O [Peptide 89] (H-HSQGS[αMeF]TSDVSK[αMeF]LDSK([PEG2-PEG2-γGlu-γGlu-Palmitoyl])AAQD[αMeF]VQIIAN-NH2; N-terminus assumed)	8.0	–
CCCCCCCCCCCCCC(=O)N[C@@H](CCC(=O)NCCOCCOCCC(=O)NCCOCCOCCC(=O)NCCCC[C@H](NC(=O)[C@H](CO)NC(=O)[C@H](CC(=O)O)NC(=O)[C@H](CC(C)C)NC(=O)[C@@H](NC(=O)[C@H](CCCCN)NC(=O)[C@H](CO)NC(=O)[C@@H](NC(=O)[C@H](CC(=O)O)NC(=O)[C@H](CO)NC(=O)[C@@H](NC(=O)[C@](C)(Cc1ccccc1)NC(=O)[C@H](CO)NC(=O)CNC(=O)[C@H](CCC(N)=O)NC(=O)[C@H](CO)NC(=O)[C@@H](N)Cc1c[nH]cn1)[C@@H](C)O)C(C)C)[C@@H](C)CC)C(=O)N[C@@H](C)C(=O)N[C@@H](C)C(=O)N[C@@H](CCC(N)=O)C(=O)N[C@@H](CC(=O)O)C(=O)N[C@@](C)(Cc1ccccc1)C(=O)N[C@H](C(=O)N[C@@H](CCC(N)=O)C(=O)NC(C)(C)C(=O)N[C@H](C(=O)N[C@H](C(=O)N[C@@H](CC(N)=O)C(=O)N[C@H](C(N)=O)[C@@H](C)O)[C@@H](C)CC)[C@@H](C)CC)C(C)C)C(=O)O [Peptide 122] (H-HSQGS[αMeF]TSDVSKILDSK([PEG2-PEG2-γGlu-Myristoyl])AAQD[αMeF]VQ[Aib]IINT-NH2; N-terminus assumed)	1.2	1.42
CC(C)C[C@H](NC(=O)[C@H](Cc1c[nH]c2ccccc12)NC(=O)[C@H](CCCNC(=N)N)NC(=O)[C@@H](NC(=O)[C@H](Cc1ccccc1)NC(=O)[C@H](CC(=O)O)NC(=O)[C@H](CCCNC(=N)N)NC(=O)[C@H](C)NC(=O)[C@H](CCCNC(=N)N)NC(=O)[C@H](CCCCNC(=O)CC[C@H](NC(=O)CC[C@H](NC(=O)COCCOCCNC(=O)COCCOCCNC(=O)CC[C@H](NC(=O)CC[C@H](NC(=O)CCCCCCCCCCCCCCCCC(=O)O)C(=O)O)C(=O)O)C(=O)O)C(=O)O)NC(=O)[C@H](CO)NC(=O)[C@H](CC(=O)O)NC(=O)[C@H](CC(C)C)NC(=O)[C@](C)(Cc1ccccc1)NC(=O)[C@H](CCCCN)NC(=O)[C@H](CO)NC(=O)[C@@H](NC(=O)[C@H](CC(=O)O)NC(=O)[C@H](CO)NC(=O)[C@@H](NC(=O)[C@H](Cc1ccccc1)NC(=O)[C@@H](NC(=O)CNC(=O)[C@H](CCC(N)=O)NC(=O)C(C)(C)NC(=O)[C@@H](N)Cc1c[nH]cn1)[C@@H](C)O)[C@@H](C)O)C(C)C)C(C)C)C(=O)N[C@@H](CC(C)C)C(=O)N[C@@H](CCC(=O)O)C(=O)NC(C)(C)C(=O)NCC(=O)O [Peptide 136] (H-H[Aib]QGTFTSDVSK[αMeF]LDSK([γGlu-γGlu-AEEA-AEEA-γGlu-γGlu-C18 diacid])RARDFVRWLLE[Aib]G-OH; N-terminus assumed)	22.3	–
CC(C)C[C@H](NC(=O)[C@H](Cc1c[nH]c2ccccc12)NC(=O)[C@H](CCCNC(=N)N)NC(=O)[C@@H](NC(=O)[C@H](Cc1ccccc1)NC(=O)[C@H](CC(=O)O)NC(=O)[C@H](CCCNC(=N)N)NC(=O)[C@H](C)NC(=O)[C@H](CCCNC(=N)N)NC(=O)[C@H](CCCCNC(=O)CC[C@H](NC(=O)CC[C@H](NC(=O)COCCOCCNC(=O)COCCOCCNC(=O)CC[C@H](NC(=O)CC[C@H](NC(=O)CCCCCCCCCCCCCCCCC(=O)O)C(=O)O)C(=O)O)C(=O)O)C(=O)O)NC(=O)[C@H](CO)NC(=O)[C@H](CC(=O)O)NC(=O)[C@H](CC(C)C)NC(=O)[C@](C)(Cc1ccccc1)NC(=O)[C@H](CCCCN)NC(=O)[C@H](CO)NC(=O)[C@@H](NC(=O)[C@H](CC(=O)O)NC(=O)[C@H](CO)NC(=O)[C@@H](NC(=O)[C@H](Cc1ccccc1)NC(=O)[C@@H](NC(=O)CNC(=O)[C@H](CCC(N)=O)NC(=O)C(C)(C)NC(=O)[C@@H](N)Cc1c[nH]cn1)[C@@H](C)O)[C@@H](C)O)C(C)C)C(C)C)C(=O)N[C@@H](CC(C)C)C(=O)N[C@@H](CCC(=O)O)C(=O)NC(C)(C)C(=O)NCC(=O)O [Peptide 144] (H-H[Aib]QGTFTSDVSK[αMeF]LDSK([γGlu-γGlu-AEEA-AEEA-γGlu-γGlu-C18 diacid])RARDFVRWLLE[Aib]G-OH; N-terminus assumed)	30.7	45.2
CC(C)C[C@H](NC(=O)[C@H](Cc1c[nH]c2ccccc12)NC(=O)[C@H](CCCNC(=N)N)NC(=O)[C@@H](NC(=O)[C@H](Cc1ccccc1)NC(=O)[C@H](CC(=O)O)NC(=O)[C@H](CCC(N)=O)NC(=O)[C@H](C)NC(=O)[C@H](CCCNC(=N)N)NC(=O)[C@H](CCCCNC(=O)COCCOCCNC(=O)COCCOCCNC(=O)CC[C@H](NC(=O)CCCCCCCCCCCCCCCCC(=O)O)C(=O)O)NC(=O)[C@H](CO)NC(=O)[C@H](CC(=O)O)NC(=O)[C@H](CC(C)C)NC(=O)[C@](C)(Cc1ccccc1)NC(=O)[C@H](CCCCN)NC(=O)[C@H](CO)NC(=O)[C@@H](NC(=O)[C@H](CC(=O)O)NC(=O)[C@H](CO)NC(=O)[C@@H](NC(=O)[C@H](Cc1ccccc1)NC(=O)[C@@H](NC(=O)CNC(=O)[C@H](CCC(N)=O)NC(=O)C(C)(C)NC(=O)[C@@H](N)Cc1c[nH]cn1)[C@@H](C)O)[C@@H](C)O)C(C)C)C(C)C)C(=O)N[C@@H](CC(C)C)C(=O)NC(C)(C)C(=O)N[C@H](C(=O)N[C@@H](CCCCN)C(=O)O)[C@@H](C)O [Peptide 177]	25.5	–
